{
  "source": "patent US4239780A",
  "about": "“Phospholipase A2 inhibition” (The Upjohn Company, priority 1979, dated 1980)",
  "origin": "cited, not measured here",
  "key": {"[1]": {"test_system": "phospholipase A2 derived from perfused guinea pig lung", "details": "enzyme derived from perfused guinea pig lung; cited from earlier work"}, "[2]": {"test_system": "phospholipase A2 of rabbit polymorphonuclear leukocytes", "details": "cited from earlier work"}, "[3]": {"target": "phospholipase A2 from venom of Crotalus Adamanteus (Crotalus adamanteus, UniProt P00623)", "sequence (P00623 17-138 limits assumed)": "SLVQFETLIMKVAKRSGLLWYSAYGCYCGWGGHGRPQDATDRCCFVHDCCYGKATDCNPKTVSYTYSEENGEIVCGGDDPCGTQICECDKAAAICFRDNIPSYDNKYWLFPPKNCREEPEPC", "details": "enzyme from Crotalus Adamanteus venom; cited from earlier work"}, "[4]": {"target": "phospholipase A2 from venom of bee (Apis mellifera, UniProt P00630)", "sequence (P00630 34-167 limits assumed)": "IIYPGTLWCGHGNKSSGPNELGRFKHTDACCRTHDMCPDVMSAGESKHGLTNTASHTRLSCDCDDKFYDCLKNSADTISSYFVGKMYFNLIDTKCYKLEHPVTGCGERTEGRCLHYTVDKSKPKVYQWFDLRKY", "details": "enzyme from bee venom; cited from earlier work"}, "[5]": {"target": "T1, phospholipase A2 from pig pancreas (Sus scrofa, UniProt P00592)", "T1 construct": "host or cells: pig pancreas", "T1 sequence (P00592 23-146)": "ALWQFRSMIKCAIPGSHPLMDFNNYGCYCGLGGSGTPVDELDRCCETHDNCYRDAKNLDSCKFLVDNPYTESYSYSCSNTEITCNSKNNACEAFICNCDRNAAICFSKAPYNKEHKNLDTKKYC", "details": "enzyme from pig pancreas; cited from earlier work"}, "[6]": {"target": "phospholipase A2 (Naja naja, UniProt P15445)", "sequence (P15445 whole entry, looked up)": "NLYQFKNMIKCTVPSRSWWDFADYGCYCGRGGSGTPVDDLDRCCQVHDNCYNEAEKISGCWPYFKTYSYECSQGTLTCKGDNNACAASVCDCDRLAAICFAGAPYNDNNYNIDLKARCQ", "details": "cited from earlier work"}},
  "data": [
    {"smiles": "CCN(CC)CCCC(C)Nc1c2ccc(Cl)cc2nc2ccc(OC)cc12", "note": "(stereo not drawn) [mepacrine]", "values": [
      {"measurement": "inhibition of phospholipase A2", "setting": "[1]", "result": "inhibits the activity of phospholipase A2"}
    ]},
    {"smiles": "COc1ccc2c(c1)c(CC(=O)O)c(C)n2C(=O)c1ccc(Cl)cc1", "note": "[indomethacin, Indomethacin]", "values": [
      {"measurement": "inhibition of phospholipase A2", "setting": "[2]", "result": "inhibit phospholipase A2 of rabbit polymorphonuclear leukocytes in dose dependent fashion"},
      {"measurement": "inhibition of phospholipase A2", "setting": "[3]", "result": "inactive"},
      {"measurement": "inhibition of phospholipase A2", "setting": "[4]", "result": "inactive"},
      {"measurement": "inhibition of phospholipase A2", "setting": "[5]", "result": "inactive"}
    ]},
    {"smiles": "O=C(CBr)c1ccc(Br)cc1", "note": "[Bromphenacyl bromide]", "values": [
      {"measurement": "inhibition of phospholipase A2", "setting": "[6]", "result": "inhibit phospholipase A2 by acylating a histadine residue"}
    ]}
  ]
}
